Reference: ChEMBL document CHEMBL4819132, “Discovery of novel tripeptide propylene oxide proteasome inhibitors for the treatment of multiple myeloma” (Bioorg Med Chem, 2021)

Experiments:
Format in all cases: ADME, organism-based
[1] = Mean residence time in Sprague-Dawley rat at 1 mg/kg, iv measured by LC-MS/MS analysis; details: in vivo
[2] = Mean residence time in Sprague-Dawley rat at 10 mg/kg, ig measured by LC-MS/MS analysis; details: in vivo, po
[3] = AUClast in Sprague-Dawley rat at 1 mg/kg, iv measured by LC-MS/MS analysis; parameters: dose 1 mg/kg; details: in vivo
[4] = AUClast in Sprague-Dawley rat at 10 mg/kg, ig measured by LC-MS/MS analysis; parameters: dose 10 mg/kg; details: in vivo, po
[5] = Tmax in Sprague-Dawley rat at 10 mg/kg, ig measured by LC-MS/MS analysis; details: in vivo, po
[6] = Tmax in Sprague-Dawley rat at 1 mg/kg, iv measured by LC-MS/MS analysis; details: in vivo
[7] = Bioavailability in Sprague-Dawley rat at 10 mg/kg, ig measured by LC-MS/MS analysis; details: in vivo, po

COC[C@H](NC(=O)c1cc(C)on1)C(=O)NCC(=O)N[C@@H](CC(C)C)C(=O)[C@@]1(C)CO1
MRT [1]: 19.8 min | MRT [2]: 51.6 min | AUClast [3]: 107 ng·mL·h | AUClast [4]: 119 ng·mL·h | Tmax [5]: 13.2 min | Tmax [6]: 4.8 min | bioavailability [7]: 13.5%

COC[C@H](NC(=O)c1cc(C)on1)C(=O)NCC(=O)N[C@@H](Cc1ccccc1)C(=O)[C@@]1(C)CO1
MRT [1]: 8.4 min | MRT [2]: 36.6 min | AUClast [3]: 72 ng·mL·h | AUClast [4]: 42 ng·mL·h | Tmax [5]: 10.2 min | Tmax [6]: 4.8 min | bioavailability [7]: 6.3%
